From paper PMC6199744, “Development of Chemical Proteomics for the Folateome and Analysis of the Kinetoplastid Folateome” (ACS Infectious Diseases, 2018)
Where two headings read alike, the source gives them in different places.

How the values were obtained:
Format in all cases: binding
[1] = biological target: T1, HeLa cell extract proteins (Homo sapiens, UniProt O75521)
T1 construct: endogenous in cells; host or cells: HeLa cell extract
T1 sequence (O75521 39-394): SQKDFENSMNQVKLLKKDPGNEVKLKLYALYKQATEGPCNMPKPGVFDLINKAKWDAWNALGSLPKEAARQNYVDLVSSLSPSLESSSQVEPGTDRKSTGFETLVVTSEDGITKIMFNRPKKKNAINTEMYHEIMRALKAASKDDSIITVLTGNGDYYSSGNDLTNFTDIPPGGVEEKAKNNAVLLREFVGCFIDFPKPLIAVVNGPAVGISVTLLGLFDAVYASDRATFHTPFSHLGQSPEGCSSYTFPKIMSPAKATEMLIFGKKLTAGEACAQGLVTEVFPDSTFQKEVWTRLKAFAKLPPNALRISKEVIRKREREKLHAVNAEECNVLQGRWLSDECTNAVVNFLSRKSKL

[2] = biological target: T2, HeLa cell extract proteins (Homo sapiens, UniProt P31689)
T2 construct: endogenous in cells; host or cells: HeLa cell extract
T2 sequence (P31689 whole entry): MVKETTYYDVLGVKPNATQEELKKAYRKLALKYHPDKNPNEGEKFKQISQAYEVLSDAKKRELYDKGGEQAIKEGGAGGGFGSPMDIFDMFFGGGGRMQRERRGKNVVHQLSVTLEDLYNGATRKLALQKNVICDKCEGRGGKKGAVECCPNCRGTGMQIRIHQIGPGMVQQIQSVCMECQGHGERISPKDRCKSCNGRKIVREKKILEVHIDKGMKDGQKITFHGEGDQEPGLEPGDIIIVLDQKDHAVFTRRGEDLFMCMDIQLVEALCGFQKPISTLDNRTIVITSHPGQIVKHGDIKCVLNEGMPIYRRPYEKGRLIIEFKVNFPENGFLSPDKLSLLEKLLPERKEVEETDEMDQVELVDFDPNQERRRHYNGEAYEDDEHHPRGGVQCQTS

[3] = biological target: T3, HeLa cell extract proteins (Homo sapiens, UniProt P46977)
T3 construct: endogenous in cells; host or cells: HeLa cell extract
T3 sequence (P46977 1-705): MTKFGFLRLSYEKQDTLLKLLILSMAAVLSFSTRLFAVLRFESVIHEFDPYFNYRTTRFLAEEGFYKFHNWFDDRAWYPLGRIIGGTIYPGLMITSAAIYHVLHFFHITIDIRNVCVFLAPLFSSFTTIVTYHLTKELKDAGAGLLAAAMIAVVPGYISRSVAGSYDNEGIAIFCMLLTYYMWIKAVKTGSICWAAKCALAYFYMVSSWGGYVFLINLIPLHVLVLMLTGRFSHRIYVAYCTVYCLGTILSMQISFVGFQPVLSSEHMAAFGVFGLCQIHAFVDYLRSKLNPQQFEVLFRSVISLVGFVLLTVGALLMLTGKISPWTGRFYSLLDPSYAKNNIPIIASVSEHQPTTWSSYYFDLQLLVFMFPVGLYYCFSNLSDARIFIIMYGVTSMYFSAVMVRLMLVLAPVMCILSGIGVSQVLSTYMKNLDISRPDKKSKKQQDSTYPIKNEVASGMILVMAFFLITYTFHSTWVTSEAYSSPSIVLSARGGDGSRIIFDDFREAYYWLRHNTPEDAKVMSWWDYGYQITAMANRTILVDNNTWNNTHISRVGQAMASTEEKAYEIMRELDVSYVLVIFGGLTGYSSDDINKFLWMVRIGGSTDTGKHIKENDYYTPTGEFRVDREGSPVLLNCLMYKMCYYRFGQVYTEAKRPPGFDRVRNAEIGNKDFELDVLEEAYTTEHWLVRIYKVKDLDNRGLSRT

[4] = biological target: T4, HeLa cell extract proteins (Homo sapiens, UniProt Q15645)
T4 construct: endogenous in cells; host or cells: HeLa cell extract
T4 sequence (Q15645 1-432): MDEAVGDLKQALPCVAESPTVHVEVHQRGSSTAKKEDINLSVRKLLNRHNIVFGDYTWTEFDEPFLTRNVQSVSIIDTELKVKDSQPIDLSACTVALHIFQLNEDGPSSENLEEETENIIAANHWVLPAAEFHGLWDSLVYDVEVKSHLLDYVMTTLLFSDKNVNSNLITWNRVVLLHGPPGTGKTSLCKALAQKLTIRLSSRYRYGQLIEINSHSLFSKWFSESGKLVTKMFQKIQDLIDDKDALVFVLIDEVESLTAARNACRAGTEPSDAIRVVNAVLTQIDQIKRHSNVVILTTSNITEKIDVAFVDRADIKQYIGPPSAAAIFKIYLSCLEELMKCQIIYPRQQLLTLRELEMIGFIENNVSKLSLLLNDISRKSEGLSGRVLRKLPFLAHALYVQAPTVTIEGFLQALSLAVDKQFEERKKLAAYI

[5] = biological target: T5, HeLa cell extract proteins (Homo sapiens, UniProt Q15907)
T5 construct: endogenous in cells; host or cells: HeLa cell extract
T5 sequence (Q15907 1-218): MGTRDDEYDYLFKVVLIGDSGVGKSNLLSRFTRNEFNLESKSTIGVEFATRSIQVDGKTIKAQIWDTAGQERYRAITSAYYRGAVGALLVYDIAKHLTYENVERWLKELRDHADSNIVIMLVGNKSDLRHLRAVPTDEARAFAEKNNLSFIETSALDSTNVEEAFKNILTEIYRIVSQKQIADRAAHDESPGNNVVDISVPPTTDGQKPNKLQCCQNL

SMILES | fold changes relative to vehicle control ([1]; protein PECI, HeLa) | fold changes relative to vehicle control ([2]; HeLa, protein DNAJA1) | fold changes relative to vehicle control ([3]; HeLa, protein STT3A) | fold changes relative to vehicle control ([4]; HeLa, protein TRIP13) | fold changes relative to vehicle control ([5]; protein RAB11B, HeLa) | fold changes relative to vehicle control ([1]; HeLa, captured protein PECI) | fold changes relative to vehicle control ([5]; HeLa, protein RAB11B) | fold changes relative to vehicle control [1] | fold changes relative to vehicle control [2] | fold changes relative to vehicle control [3] | fold changes relative to vehicle control [4] | fold changes relative to vehicle control [5]
Nc1nc2cccc(-c3ccccc3)c2n1Cc1ccc(Cl)c(Cl)c1 [compound 3] | 1.05 | 0.92 | 1.36 | 1.24 | 0.97 |  |  |  |  |  |  | 
CCCCCCOc1ccc(Cc2cnc(N)nc2N)cc1 [compound 1] | 0.99 | 1.07 | 0.96 | 0.96 | 1.02 |  |  |  |  |  |  | 
NCCCNc1ccc(C(=O)NC(CCC(=O)O)C(=O)O)cc1 (centres unmarked) [compound 7] |  | 1.15 | 0.93 | 1.09 |  | 1.03 | 0.84 |  |  |  |  | 
CCCCCCOc1cccc(Cc2cnc(N)nc2N)c1 [compound 2] | 0.82 | 1.11 | 1.08 | 1.17 | 1.44 |  |  |  |  |  |  | 
NCCOCCOCC(=O)Nc1nc2ncc(CNc3ccc(C(=O)NC(CCC(=O)O)C(=O)O)cc3)nc2c(=O)[nH]1 (centres unmarked) [compound 6] |  | 1.06 | 0.96 | 0.94 |  | 0.96 | 1.14 |  |  |  |  | 
Nc1nc2[nH]cc(CCc3ccc(C(=O)N[C@@H](CCC(=O)O)C(=O)O)cc3)c2c(=O)[nH]1 [PTX, pemetrexed] |  |  |  |  |  |  |  | 1.01 | 0.93 | 0.89 | 0.88 | 0.94
Nc1nc2c(c(=O)[nH]1)N(C=O)C(CNc1ccc(C(=O)N[C@@H](CCC(=O)O)C(=O)O)cc1)CN2 (some centres unmarked) [LEU, leucovorin] |  | 0.99 | 1.1 | 0.92 |  | 1.06 | 0.87 |  |  |  |  | 
